In ChEMBL document CHEMBL1201862, “PubChem BioAssay data set” (2004):
Active and inactive are the calls of the source.

Key:
[1] = biological target: Melanin-concentrating hormone receptor 1 (Homo sapiens, UniProt Q99705); experiment: Fluorescence-based counterscreen for antagonists of the G-protein coupled receptor 7 (GPR7): cell-based high throughput dose response assay to identify antagonists of the melanin-concentrating hormone receptor 1 (MCHR1).; type: functional
[2] = biological target: Neuropeptides B/W receptor type 1 (Homo sapiens, UniProt P48145); experiment: Fluorescence-based dose response cell-based high throughput screening assay to identify antagonists of the G-protein coupled receptor 7 (GPR7). [Related pubchem assays: 1952 (Screening assay (GPR7 antagonists).), 1880 (Summary AID.)]; type: functional
[3] = tested on: HEK293; experiment: NOD2 signaling inhibitors in MDP-stimulated cells, cell-based, uHTS, luminescence (AID 2001); type: functional; settings: Homo sapiens
[4] = biological target: T1, Heat shock 70 kDa protein 1A (Homo sapiens, UniProt P0DMV8); experiment: small-molecule inhibition of Hsp70 – biochemical, TR-FRET (AID 786)
[5] = tested on: HEK293; experiment: cells; type: functional, cell-based; settings: Homo sapiens
[6] = tested on: HEK293; experiment: cells; type: functional, cell-based; settings: Homo sapiens; remark: listed apart in the source
[7] = fluconazole-exposed Candida albicans growth modulators – fluorescence, retest, confirmation (AID 2467); type: functional, cell-based
[8] = NIH-3T3 fibroblast cytotoxicity, dose response, cytotoxicity control, cell-based, fluorescence, Alamar Blue, secondary assay (AID 2327); type: functional;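 further: NIH-3T3 mouse fibroblasts cultured with fluconazole at 8 µg/mL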
[9] = biological target: T2, Nucleotide-binding oligomerization domain-containing protein 1 (Homo sapiens, UniProt Q9Y239); experiment: blockers of NOD1 pathway activity – revised, SAR follow-up (AID 2333); type: functional
T2 sequence (Q9Y239 whole entry): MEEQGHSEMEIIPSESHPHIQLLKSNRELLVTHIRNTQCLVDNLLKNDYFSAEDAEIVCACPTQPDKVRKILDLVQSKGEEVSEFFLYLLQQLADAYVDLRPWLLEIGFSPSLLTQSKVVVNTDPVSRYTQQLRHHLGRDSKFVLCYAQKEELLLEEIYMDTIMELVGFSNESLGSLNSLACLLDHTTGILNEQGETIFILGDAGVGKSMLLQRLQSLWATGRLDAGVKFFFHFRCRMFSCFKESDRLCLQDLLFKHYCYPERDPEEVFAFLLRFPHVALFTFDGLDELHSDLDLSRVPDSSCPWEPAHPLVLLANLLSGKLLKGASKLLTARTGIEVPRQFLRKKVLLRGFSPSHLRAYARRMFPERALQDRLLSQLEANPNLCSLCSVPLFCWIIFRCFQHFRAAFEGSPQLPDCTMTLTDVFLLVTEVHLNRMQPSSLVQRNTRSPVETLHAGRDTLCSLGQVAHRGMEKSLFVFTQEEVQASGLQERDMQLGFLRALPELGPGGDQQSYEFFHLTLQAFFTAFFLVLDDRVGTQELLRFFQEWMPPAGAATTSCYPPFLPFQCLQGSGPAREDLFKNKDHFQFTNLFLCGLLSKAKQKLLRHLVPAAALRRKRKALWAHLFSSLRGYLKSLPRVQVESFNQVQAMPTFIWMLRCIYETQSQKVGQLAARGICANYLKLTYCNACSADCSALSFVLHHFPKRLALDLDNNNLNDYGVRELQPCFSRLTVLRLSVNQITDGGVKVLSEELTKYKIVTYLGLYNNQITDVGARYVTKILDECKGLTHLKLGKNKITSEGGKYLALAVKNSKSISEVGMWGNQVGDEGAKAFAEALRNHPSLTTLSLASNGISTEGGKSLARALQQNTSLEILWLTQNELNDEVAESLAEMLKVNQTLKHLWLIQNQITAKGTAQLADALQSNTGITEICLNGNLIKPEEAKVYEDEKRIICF

[10] = tested on: HEK293; experiment: inhibition of NOD1-driven NF-kB reporter – cell-based, luminescence, uHTS, primary screen (AID 1578); type: functional; settings: Homo sapiens
[11] = biological target: Nucleotide-binding oligomerization domain-containing protein 2 (Homo sapiens, UniProt Q9HC29); experiment: inhibition of NOD2-driven NF-kB reporter – cell-based, luminescence, uHTS, HEK293 (AID 1566); type: functional
[12] = biological target: Tumor necrosis factor (Homo sapiens, UniProt P01375); experiment: analog potency on TNFa NF-kB signaling – cell-based, revised, SAR follow-up (AID 2337); type: functional
[13] = tested on: HEK293; experiment: cells; type: functional, cell-based; settings: Homo sapiens; remark: listed apart in the source
[14] = tested on: HEK293; experiment: cells; settings: Homo sapiens
[15] = biological target: T1, Heat shock 70 kDa protein 1A; experiment: small molecules displacing fluorescent ligand from Hsp70 – biochemical, fluorescence polarization, primary screen (AID 583)
[16] = biological target: Nonstructural protein 1 (Influenza A virus, UniProt Q194T2); type: functional, Influenza A virus (A/California/07/2009(H1N1))
[17] = biological target: Serine/threonine-protein phosphatase PP1-alpha catalytic subunit (Homo sapiens, UniProt P62136); experiment: inhibition of protein phosphatase 1 activity – biochemical, fluorescence, dose response (AID 2403);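 further: phosphatase turnover of OMFP into fluorescent 3-O-methylfluorescein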
[18] = biological target: Disintegrin and metalloproteinase domain-containing protein 17 (Homo sapiens, UniProt P78536); experiment: exosite inhibitors of ADAM17, dose response, biochemical (AID 743260)
[19] = biological target: Serine/threonine-protein phosphatase (Homo sapiens, UniProt Q9BPW0); experiment: Counterscreen for inhibitors of PP1: fluorescence-based biochemical high throughput dose response assay to identify inhibitors of Protein Phosphatase 5 (PP5). [Related pubchem assays: 2034 (Summary (PP5 inhibitors)), 1987 (PP5 inhibitors in singlate), 2235 (PP1 inhibitors in singlate)]
[20] = tested on: Streptococcus; experiment: GAS UMAA2166 growth inhibition – luminescence, BacTiterGlo, counter-screen for streptokinase expression inhibitor project, dose response (AID 1915); type: functional, organism-based;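 further: potency for reduction of bacterial viability or growth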
[21] = tested on: Vero; experiment: viability of Vero cells under compound – cytotoxicity control for flavivirus capping enzyme inhibitors (AID 588742); type: functional; settings: Chlorocebus sabaeus
[22] = biological target: T3, Alkaline phosphatase, tissue-nonspecific isozyme (Homo sapiens, UniProt P05186)
T3 sequence (P05186 whole entry): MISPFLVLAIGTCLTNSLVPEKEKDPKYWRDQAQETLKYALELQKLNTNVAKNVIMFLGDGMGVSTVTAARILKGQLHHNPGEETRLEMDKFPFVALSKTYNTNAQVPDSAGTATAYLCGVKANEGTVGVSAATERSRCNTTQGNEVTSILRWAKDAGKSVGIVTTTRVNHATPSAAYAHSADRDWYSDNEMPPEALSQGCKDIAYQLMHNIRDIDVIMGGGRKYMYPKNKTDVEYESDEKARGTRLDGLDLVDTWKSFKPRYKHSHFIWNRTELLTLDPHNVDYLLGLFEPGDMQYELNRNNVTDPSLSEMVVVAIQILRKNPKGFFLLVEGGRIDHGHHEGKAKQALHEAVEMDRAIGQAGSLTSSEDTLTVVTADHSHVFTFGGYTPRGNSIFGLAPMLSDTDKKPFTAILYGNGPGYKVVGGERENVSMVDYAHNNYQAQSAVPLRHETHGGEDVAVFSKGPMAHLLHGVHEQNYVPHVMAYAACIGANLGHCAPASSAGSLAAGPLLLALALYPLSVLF

[23] = tested on: Streptococcus sp. 'group A'; experiment: Streptococcus pyogenes SK(-)GAS viability under kanamycin – luminescence, BacTiterGlo, confirmation, counter-screen for streptokinase expression inhibitor project, dose response (AID 1900); type: functional, organism-based
[24] = biological target: T4, Streptokinase A (Streptococcus pyogenes serotype M1, UniProt P10520); experiment: viability-normalized secreted streptokinase activity reduction – plasminogen activation absorbance, OD405, dose response (AID 1914); type: functional, Streptococcus pyogenes M1 GAS;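 further: secreted streptokinase activity via plasminogen activation per viability signal from cell pellet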
T4 sequence (P10520 whole entry): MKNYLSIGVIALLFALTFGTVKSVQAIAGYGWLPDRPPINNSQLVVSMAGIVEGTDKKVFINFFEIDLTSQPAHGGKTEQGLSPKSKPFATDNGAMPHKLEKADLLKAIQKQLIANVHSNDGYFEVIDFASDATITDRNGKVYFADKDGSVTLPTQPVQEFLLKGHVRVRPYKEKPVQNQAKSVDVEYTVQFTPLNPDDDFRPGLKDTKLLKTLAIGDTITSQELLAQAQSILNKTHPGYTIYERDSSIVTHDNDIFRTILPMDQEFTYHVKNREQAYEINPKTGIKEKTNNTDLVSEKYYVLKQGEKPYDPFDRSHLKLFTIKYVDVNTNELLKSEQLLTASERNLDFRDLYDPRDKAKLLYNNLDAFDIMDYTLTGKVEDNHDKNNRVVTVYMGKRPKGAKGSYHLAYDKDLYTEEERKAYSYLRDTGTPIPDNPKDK

T1 sequence (P0DMV8 whole entry): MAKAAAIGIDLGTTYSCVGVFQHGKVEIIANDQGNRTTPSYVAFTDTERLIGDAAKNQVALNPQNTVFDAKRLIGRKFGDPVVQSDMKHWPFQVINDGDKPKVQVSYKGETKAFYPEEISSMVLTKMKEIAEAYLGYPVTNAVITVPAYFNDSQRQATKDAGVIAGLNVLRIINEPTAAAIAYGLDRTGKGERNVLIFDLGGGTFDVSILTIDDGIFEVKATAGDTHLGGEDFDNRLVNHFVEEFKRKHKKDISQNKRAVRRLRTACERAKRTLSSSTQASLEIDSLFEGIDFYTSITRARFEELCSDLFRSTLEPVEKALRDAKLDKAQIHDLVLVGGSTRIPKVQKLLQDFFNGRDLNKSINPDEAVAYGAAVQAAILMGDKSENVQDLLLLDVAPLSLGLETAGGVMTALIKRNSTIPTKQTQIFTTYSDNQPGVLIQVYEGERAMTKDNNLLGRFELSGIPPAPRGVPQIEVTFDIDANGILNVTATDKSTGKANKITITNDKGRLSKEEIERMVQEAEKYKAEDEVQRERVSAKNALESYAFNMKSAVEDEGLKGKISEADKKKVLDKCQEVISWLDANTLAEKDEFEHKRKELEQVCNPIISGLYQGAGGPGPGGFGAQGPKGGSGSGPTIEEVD
Chain of Serine/threonine-protein phosphatase (Q9BPW0 whole entry): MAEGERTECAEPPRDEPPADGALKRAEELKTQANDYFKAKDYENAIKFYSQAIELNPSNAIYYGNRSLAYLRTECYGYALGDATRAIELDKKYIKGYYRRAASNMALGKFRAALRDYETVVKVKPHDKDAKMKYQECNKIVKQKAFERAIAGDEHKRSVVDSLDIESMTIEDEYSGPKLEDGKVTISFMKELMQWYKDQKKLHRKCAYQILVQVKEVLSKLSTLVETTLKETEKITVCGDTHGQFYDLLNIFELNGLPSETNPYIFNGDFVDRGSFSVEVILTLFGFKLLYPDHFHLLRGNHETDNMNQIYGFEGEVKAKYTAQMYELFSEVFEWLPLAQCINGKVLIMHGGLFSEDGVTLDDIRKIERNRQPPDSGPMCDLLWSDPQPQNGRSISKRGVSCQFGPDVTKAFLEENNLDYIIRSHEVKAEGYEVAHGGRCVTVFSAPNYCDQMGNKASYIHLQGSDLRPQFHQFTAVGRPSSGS
Chain of Nonstructural protein 1 (Q194T2 whole entry): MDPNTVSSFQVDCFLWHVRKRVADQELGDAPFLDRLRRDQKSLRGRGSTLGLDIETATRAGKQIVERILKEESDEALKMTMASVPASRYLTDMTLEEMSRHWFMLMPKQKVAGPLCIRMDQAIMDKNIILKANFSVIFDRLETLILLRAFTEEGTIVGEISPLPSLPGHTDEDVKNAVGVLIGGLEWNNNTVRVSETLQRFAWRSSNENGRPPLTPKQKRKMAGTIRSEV
Chain of Melanin-concentrating hormone receptor 1 (Q99705 whole entry): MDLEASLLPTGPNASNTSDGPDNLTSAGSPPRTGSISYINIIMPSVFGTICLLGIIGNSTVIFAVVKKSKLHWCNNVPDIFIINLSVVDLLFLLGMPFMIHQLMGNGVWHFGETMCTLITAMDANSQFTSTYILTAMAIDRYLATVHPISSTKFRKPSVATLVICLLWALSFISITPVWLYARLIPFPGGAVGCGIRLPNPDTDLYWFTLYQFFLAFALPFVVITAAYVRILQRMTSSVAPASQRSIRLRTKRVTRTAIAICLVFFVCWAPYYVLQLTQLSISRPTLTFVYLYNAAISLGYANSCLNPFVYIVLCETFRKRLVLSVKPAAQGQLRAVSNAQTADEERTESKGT
Chain of Disintegrin and metalloproteinase domain-containing protein 17 (P78536 whole entry, the tested form may be a part): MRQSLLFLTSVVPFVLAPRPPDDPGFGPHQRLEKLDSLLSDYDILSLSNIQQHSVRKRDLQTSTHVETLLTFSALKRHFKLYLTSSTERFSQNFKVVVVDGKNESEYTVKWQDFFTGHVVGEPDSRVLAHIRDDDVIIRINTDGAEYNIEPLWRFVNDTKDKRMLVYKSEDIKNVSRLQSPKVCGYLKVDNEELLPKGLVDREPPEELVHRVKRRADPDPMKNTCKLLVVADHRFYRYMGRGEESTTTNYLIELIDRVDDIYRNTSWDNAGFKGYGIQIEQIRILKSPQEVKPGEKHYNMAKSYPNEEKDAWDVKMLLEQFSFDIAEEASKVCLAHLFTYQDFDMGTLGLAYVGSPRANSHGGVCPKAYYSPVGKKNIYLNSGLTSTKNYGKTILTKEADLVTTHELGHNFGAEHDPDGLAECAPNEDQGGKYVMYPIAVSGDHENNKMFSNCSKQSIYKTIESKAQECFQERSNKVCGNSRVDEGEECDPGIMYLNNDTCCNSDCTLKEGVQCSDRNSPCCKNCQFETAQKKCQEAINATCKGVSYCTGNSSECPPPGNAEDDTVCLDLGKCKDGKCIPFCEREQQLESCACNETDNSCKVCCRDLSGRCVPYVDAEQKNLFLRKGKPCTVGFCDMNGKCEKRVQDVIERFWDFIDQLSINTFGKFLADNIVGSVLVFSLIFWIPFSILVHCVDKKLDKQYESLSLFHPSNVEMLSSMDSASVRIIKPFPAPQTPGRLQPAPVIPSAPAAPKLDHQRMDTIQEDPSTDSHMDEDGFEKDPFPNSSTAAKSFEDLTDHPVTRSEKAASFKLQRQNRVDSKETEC
Chain of Nucleotide-binding oligomerization domain-containing protein 2 (Q9HC29 whole entry, the tested form may be a part): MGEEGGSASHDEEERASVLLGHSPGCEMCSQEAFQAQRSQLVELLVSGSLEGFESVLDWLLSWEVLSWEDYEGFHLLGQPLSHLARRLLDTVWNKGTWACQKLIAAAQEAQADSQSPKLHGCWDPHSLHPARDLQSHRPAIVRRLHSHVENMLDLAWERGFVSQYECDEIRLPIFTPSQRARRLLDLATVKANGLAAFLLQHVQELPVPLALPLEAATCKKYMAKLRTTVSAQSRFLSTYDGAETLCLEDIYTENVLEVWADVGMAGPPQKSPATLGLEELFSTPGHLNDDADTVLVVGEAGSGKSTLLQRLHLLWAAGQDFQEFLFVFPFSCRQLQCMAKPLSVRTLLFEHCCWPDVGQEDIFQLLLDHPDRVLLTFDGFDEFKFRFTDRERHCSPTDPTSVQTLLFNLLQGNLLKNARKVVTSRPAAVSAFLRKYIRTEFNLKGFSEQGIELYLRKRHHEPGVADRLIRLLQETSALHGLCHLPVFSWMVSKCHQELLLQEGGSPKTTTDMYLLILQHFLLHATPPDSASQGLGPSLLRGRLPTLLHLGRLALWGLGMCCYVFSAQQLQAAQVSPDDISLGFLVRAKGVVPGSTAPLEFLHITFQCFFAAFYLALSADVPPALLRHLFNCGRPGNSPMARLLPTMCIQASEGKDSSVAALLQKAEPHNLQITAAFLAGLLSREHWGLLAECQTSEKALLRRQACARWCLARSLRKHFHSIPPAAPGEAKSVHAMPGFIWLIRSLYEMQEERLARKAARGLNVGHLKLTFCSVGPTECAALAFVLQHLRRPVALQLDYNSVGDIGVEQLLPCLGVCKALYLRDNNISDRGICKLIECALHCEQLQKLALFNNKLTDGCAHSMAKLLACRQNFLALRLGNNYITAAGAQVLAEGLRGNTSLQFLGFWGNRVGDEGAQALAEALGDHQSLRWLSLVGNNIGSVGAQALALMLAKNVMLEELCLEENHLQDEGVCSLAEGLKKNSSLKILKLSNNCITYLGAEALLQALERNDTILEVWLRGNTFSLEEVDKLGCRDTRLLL
Chain of Tumor necrosis factor (P01375 whole entry): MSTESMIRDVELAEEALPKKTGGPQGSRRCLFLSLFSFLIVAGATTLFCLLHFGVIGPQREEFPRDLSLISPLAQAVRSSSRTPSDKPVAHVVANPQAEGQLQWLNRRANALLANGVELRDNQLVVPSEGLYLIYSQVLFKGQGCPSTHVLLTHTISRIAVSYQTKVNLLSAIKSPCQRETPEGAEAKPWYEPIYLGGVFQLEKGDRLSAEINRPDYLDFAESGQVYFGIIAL
Chain of Serine/threonine-protein phosphatase PP1-alpha catalytic subunit (P62136 whole entry, the tested form may be a part): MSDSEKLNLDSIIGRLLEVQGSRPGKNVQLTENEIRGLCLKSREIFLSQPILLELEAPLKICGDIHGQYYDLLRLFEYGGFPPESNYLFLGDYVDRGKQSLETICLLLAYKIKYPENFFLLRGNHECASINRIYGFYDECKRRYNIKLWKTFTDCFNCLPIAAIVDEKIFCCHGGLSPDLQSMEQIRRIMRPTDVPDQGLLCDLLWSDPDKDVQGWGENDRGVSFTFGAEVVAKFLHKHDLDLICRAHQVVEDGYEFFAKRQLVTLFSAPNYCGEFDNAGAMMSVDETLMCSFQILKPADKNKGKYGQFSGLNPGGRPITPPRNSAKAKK
Chain of Neuropeptides B/W receptor type 1 (P48145 whole entry): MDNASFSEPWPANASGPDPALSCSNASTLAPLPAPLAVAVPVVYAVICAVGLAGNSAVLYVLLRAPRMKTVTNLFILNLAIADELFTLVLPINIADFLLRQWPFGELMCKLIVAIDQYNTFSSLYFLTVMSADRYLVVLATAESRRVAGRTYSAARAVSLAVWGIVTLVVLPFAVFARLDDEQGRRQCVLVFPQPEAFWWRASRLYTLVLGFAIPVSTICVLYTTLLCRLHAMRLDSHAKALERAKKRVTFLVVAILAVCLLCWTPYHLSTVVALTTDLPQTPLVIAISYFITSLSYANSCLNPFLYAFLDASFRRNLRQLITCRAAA

O=C(CCN(CCO)Cc1ccccc1)Nc1ccc(Br)cc1
IC50 [1]: 17.6 µM (not active)
IC50 [2]: > 14.6 µM (not active)

O=[N+]([O-])c1ccc(Cl)c(/C=C/c2cc(C(F)(F)F)nc(O)n2)c1
IC50 [3]: 11.8 µM (inactive)
IC50 [4]: > 100 µM (not active)
IC50 [5]: > 20 µM (inactive)
IC50 [6]: > 20 µM (inactive)
EC50 [7]: 1.8 µM (active)
EC50 [8]: > 150 µM (inactive)
IC50 [9]: 4.4 µM (active)
EC50 [10]: 6.85 µM (active)
EC50 [11]: > 20 µM (inactive)
IC50 [12]: 10.3 µM (active)
IC50 [13]: 10.2 µM (active)
IC50 [14]: > 20 µM (inactive)
IC50 [15]: 46.4 µM (active)

Oc1c(C(c2ccccn2)N2CCCCC2)cc(Cl)c2cccnc12 (centres undefined)
IC50 [16]: 8.02 µM (active)
IC50 [17]: 2.48 µM (active)
IC50 [18]: 17 µM (inactive)
IC50 [19]: 42.3 µM (not active)
EC50 [20]: 15.4 µM (active)
CC50 [21]: 31.4 µM (active)
EC50 [22]: 81.1 µM (not active)
EC50 [23]: 6.02 µM (active)
EC50 [24]: > 150 µM (not active)
